{"source": "BigSolDB 2.1"}
{"compound": "NC(N)=S", "values": [{"measurement": "solubility (mole fraction)", "setting": "in ethanol, 292.65 K", "result": 0.0224}, {"measurement": "solubility (mole fraction)", "setting": "in ethanol, 293.85 K", "result": 0.0227}, {"measurement": "solubility (mole fraction)", "setting": "in ethanol, 299.45 K", "result": 0.0256}, {"measurement": "solubility (mole fraction)", "setting": "in ethanol, 302.75 K", "result": 0.0281}, {"measurement": "solubility (mole fraction)", "setting": "in ethanol, 305.85 K", "result": 0.0295}, {"measurement": "solubility (mole fraction)", "setting": "in ethanol, 308.95 K", "result": 0.0324}, {"measurement": "solubility (mole fraction)", "setting": "in ethanol, 309.4 K", "result": 0.0331}, {"measurement": "solubility (mole fraction)", "setting": "in ethanol, 311.65 K", "result": 0.0345}, {"measurement": "solubility (mole fraction)", "setting": "in ethanol, 312.55 K", "result": 0.035}, {"measurement": "solubility (mole fraction)", "setting": "in ethanol, 312.75 K", "result": 0.0353}, {"measurement": "solubility (mole fraction)", "setting": "in ethanol, 313.9 K", "result": 0.0364}, {"measurement": "solubility (mole fraction)", "setting": "in ethanol, 314.35 K", "result": 0.0375}, {"measurement": "solubility (mole fraction)", "setting": "in ethanol, 315.55 K", "result": 0.0384}, {"measurement": "solubility (mole fraction)", "setting": "in ethanol, 316.4 K", "result": 0.0386}, {"measurement": "solubility (mole fraction)", "setting": "in ethanol, 318.2 K", "result": 0.0399}, {"measurement": "solubility (mole fraction)", "setting": "in ethanol, 320 K", "result": 0.0422}, {"measurement": "solubility (mole fraction)", "setting": "in methanol, 298.65 K", "result": 0.0534}, {"measurement": "solubility (mole fraction)", "setting": "in methanol, 301.45 K", "result": 0.0565}, {"measurement": "solubility (mole fraction)", "setting": "in methanol, 304.35 K", "result": 0.0606}, {"measurement": "solubility (mole fraction)", "setting": "in methanol, 307.85 K", "result": 0.0643}, {"measurement": "solubility (mole fraction)", "setting": "in methanol, 309.05 K", "result": 0.0667}, {"measurement": "solubility (mole fraction)", "setting": "in methanol, 311.25 K", "result": 0.0702}, {"measurement": "solubility (mole fraction)", "setting": "in methanol, 314.55 K", "result": 0.0761}, {"measurement": "solubility (mole fraction)", "setting": "in methanol, 319.45 K", "result": 0.0821}, {"measurement": "solubility (mole fraction)", "setting": "in methanol, 321.25 K", "result": 0.0872}]}
